In patent US12441703B2, “Carboxamides as modulators of sodium channels” (VERTEX PHARMACEUTICALS INCORPORATED, priority 2019, dated 2025) one finds IC50 data, which are given here for 12 compounds.

One may read the IC50 as the concentration that gives 50% inhibition.

Structures are written as SMILES.

The test deals with human NaV 1.8 (Homo sapiens, UniProt Q9Y5Y9). Briefly: E-VIPR assay for detecting and measuring NaV inhibition properties. Type of test: cell-based. Conditions: E-VIPR assay conducted in the presence of human serum; HEK cells expressing truncated human NaV 1.8; read-out: IC50. In short, it runs like this: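 Membrane-potential (coumarin/oxonol) readout after 10 s of 10 Hz biphasic electrical stimulation on E-VIPR. Compounds: 11-point 3-fold dilutions, […], 0.625% DMSO, 30 min at room temperature, human serum optional. Cells: HEK expressing truncated human NaV1.8 co-transduced with KIR2.1.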
human NaV 1.8, sequence (Q9Y5Y9 whole entry, looked up, the tested form may be a part): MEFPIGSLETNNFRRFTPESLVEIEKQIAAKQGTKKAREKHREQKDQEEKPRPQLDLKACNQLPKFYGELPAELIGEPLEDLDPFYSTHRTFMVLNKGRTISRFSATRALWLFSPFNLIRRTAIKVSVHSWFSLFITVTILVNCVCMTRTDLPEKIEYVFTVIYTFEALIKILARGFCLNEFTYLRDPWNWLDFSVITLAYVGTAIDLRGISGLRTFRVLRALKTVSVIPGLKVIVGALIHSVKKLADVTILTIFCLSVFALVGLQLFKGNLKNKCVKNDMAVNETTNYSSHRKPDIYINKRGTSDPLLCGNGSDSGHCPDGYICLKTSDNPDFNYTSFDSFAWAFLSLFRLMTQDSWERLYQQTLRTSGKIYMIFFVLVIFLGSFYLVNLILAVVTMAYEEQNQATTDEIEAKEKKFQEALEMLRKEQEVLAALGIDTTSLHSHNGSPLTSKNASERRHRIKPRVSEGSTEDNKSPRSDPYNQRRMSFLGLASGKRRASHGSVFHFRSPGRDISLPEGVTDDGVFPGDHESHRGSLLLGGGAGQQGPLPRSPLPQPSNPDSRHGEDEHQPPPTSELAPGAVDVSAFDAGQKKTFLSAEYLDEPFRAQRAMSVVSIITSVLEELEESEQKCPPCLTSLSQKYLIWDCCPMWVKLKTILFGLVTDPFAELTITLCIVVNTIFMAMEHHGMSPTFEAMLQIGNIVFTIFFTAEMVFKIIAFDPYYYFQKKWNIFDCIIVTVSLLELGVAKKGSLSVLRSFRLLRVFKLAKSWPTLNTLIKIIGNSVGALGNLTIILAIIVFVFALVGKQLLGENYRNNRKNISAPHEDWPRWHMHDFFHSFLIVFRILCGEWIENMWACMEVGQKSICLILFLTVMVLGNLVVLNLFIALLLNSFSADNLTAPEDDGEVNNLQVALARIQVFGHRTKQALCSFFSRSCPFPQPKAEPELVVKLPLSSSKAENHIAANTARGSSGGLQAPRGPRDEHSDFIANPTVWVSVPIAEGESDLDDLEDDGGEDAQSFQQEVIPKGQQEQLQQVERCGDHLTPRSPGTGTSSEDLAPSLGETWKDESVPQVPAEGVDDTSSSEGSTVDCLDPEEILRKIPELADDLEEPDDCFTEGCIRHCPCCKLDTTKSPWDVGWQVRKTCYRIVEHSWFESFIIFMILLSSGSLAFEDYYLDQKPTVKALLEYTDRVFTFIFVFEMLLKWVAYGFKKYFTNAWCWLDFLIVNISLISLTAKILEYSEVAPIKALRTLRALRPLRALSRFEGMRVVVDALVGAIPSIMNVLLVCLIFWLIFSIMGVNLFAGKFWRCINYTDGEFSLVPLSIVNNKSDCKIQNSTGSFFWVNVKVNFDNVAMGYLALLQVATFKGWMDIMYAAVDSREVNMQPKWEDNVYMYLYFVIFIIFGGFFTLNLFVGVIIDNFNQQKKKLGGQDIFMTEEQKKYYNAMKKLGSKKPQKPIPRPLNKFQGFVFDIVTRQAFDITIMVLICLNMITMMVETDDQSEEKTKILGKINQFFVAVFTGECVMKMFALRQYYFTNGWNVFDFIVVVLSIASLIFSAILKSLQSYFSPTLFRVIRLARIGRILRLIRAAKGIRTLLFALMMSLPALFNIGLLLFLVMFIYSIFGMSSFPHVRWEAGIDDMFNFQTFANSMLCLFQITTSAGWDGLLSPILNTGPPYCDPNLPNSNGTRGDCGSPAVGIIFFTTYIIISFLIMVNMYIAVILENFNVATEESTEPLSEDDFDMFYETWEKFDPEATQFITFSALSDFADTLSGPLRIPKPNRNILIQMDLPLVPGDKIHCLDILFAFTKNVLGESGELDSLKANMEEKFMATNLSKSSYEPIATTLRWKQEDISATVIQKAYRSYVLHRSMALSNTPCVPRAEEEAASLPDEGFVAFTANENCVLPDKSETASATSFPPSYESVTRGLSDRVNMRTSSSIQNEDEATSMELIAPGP

For the compound `Cc1c(C(F)(F)F)ccc(Oc2ccc(OC(F)(F)F)cc2Cl)c1C(=O)Nc1ccnc(C(N)=O)c1` [Compound 146, 4-[[6-[2-chloro-4-(trifluoromethoxy)phenoxy]-2-methyl-3-(trifluoromethyl)benzoyl]amino]pyridine-2-carboxamide], the IC50 came out at 17 nM.
As for `COc1c(Oc2cc3c(cc2C(=O)Nc2ccnc(C(N)=O)c2)OC(F)(F)O3)ccc(OC(F)(F)F)c1F` [Compound 311, 4-[[2,2-difluoro-6-[3-fluoro-2-methoxy-4-(trifluoromethoxy)phenoxy]-1,3-benzodioxole-5-carbonyl]amino]pyridine-2-carboxamide], the IC50 amounted to 13 nM.
With `COc1cc(OC(F)(F)F)ccc1Oc1cc(C2CCC(C(F)(F)F)CC2)ccc1C(=O)Nc1ccnc(C(N)=O)c1` (single isomer, unassigned) [158 (first diastereomer), 4-[[2-[2-methoxy-4-(trifluoromethoxy)phenoxy]-4-[4-(trifluoromethyl)cyclohexyl]benzoyl]amino]pyridine-2-carboxamide] the figure was 960 nM.
On to `CCOc1ccc(Oc2ccc(C(F)(F)F)c(F)c2C(=O)Nc2ccnc(C(N)=O)c2)cc1F` [Compound 29, 4-[[6-(4-ethoxy-3-fluoro-phenoxy)-2-fluoro-3-(trifluoromethyl)benzoyl]amino]pyridine-2-carboxamide], for which the IC50 is 45 nM.
In the case of `COc1cc(OC(F)(F)F)ccc1Oc1ccc(C(F)(F)F)c(F)c1C(=O)Nc1cnc(C(N)=O)nc1` [Compound 357, 5-[[2-fluoro-6-[2-methoxy-4-(trifluoromethoxy)phenoxy]-3-(trifluoromethyl)benzoyl]amino]pyrimidine-2-carboxamide], the IC50 worked out at 15 nM.
As for `COc1cc(OC(F)(F)F)ccc1Oc1cc(C(F)(F)F)c(C)nc1C(=O)Nc1ccnc(C(N)=O)c1` [Compound 247, N-(2-carbamoyl-4-pyridyl)-3-[2-methoxy-4-(trifluoromethoxy)phenoxy]-6-methyl-5-(trifluoromethyl)pyridine-2-carboxamide], the IC50 was 190 nM.
For `COc1cc(OC(F)(F)F)ccc1Oc1ccc(C(F)(F)F)c(OC2CC2)c1C(=O)Nc1ccnc(C(N)=O)c1` [Compound 85, 4-[[2-(cyclopropoxy)-6-[2-methoxy-4-(trifluoromethoxy)phenoxy]-3-(trifluoromethyl)benzoyl]amino]pyridine-2-carboxamide], the IC50 came out at 180 nM.
With `COc1cc(OC(F)(F)F)ccc1Oc1cc(Cl)cc(F)c1C(=O)Nc1cc(C(N)=O)[n+]([O-])cc1C` [Compound 267, 4-[[4-chloro-2-fluoro-6-[2-methoxy-4-(trifluoromethoxy)phenoxy]benzoyl]amino]-5-methyl-1-oxido-pyridin-1-ium-2-carboxamide] the figure was 84 nM.
With `NC(=O)c1cc(NC(=O)c2c(Oc3c(F)ccc(F)c3C3CC3)ccc(C(F)(F)F)c2F)ccn1` [Compound 340, 4-[[6-(2-cyclopropyl-3,6-difluoro-phenoxy)-2-fluoro-3-(trifluoromethyl)benzoyl]amino]pyridine-2-carboxamide] the figure was over 3000 nM.
Consider `[2H]C([2H])([2H])Oc1cc(OC(F)(F)F)ccc1Oc1cc(C(F)(F)F)cnc1C(=O)Nc1ccnc(C(N)=O)c1` [Compound 173, N-(2-carbamoyl-4-pyridyl)-3-[2-(trideuteriomethoxy)-4-(trifluoromethoxy)phenoxy]-5-(trifluoromethyl)pyridine-2-carboxamide], for which the IC50 came to 1300 nM.
For `COc1c(C(F)(F)F)ccc(Oc2ccc(F)cc2C)c1C(=O)Nc1ccnc(C(N)=O)c1` [Compound 64, 4-[[6-(4-fluoro-2-methyl-phenoxy)-2-methoxy-3-(trifluoromethyl)benzoyl]amino]pyridine-2-carboxamide], the half-maximal inhibitory concentration (IC50) amounted to 63 nM.
As to `COc1c(Oc2cc3c(c(F)c2C(=O)Nc2ccnc(C(N)=O)c2)OC(C)(C)CO3)ccc(OC(F)(F)F)c1F` [Compound 1041, 4-(5-fluoro-7-(3-fluoro-2-methoxy-4-(trifluoromethoxy)phenoxy)-3,3-dimethyl-2,3-dihydrobenzo[b][1,4]dioxine-6-carboxamido)picolinamide], the half-inhibitory concentration (IC50) came to 38 nM.
